Data on 54 compounds can be found in US5840917A, “Phosphorylamides, their preparation and use” (Takeda Chemical Industries, Ltd., priority 1995, dated 1998).

For this test, the target named is T1, Helicobacter pylori-derived urease (Helicobacter pylori, UniProt P69996).
T1 construct: an urease solution prepared from Helicobacter pylori; endogenous in cells
T1 sequence (P69996 whole entry, looked up): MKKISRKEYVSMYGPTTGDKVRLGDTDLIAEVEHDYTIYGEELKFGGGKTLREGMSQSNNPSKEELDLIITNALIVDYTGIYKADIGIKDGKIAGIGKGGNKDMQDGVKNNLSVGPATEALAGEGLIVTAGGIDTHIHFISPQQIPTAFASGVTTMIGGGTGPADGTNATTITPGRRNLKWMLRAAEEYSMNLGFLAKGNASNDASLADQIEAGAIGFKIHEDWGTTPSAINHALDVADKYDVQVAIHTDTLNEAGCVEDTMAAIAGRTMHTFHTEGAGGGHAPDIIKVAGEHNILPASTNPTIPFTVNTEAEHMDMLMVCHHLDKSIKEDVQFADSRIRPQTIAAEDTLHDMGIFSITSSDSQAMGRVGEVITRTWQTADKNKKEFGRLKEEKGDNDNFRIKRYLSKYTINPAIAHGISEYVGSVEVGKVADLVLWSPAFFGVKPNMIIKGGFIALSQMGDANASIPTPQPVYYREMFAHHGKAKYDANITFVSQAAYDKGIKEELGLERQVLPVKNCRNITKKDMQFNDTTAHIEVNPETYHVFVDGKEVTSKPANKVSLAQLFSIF
The experiment in a line: Screening of urease inhibitors (ammonia yield from urea). The class given is biochemical. As to the method: Screening of Urease Inhibitors
One hundred (100) μl of 100 mM Bis-Tris buffer (pH 6.5) and 60 μl of an urease solution prepared from Helicobacter pylori were added to 20 μl of a test drug dissolved in 0.1% dimethylformamide solution. The mixture was incubated at room temperature for 30 minutes, and then 20 μl of 100 mM urea was added. The mixture was kept at room temperature for 10 minutes, and then the yielded ammonia in the incubation mixture was measured using a commercial test kit (Ammonia Test Wako®; Wako Pure Chemical). The percent inhibition against the yield of ammonia in the solvent addition group was calculated to obtain the IC50 value.
Consider `NP(N)(=O)NC(=O)C=Cc1nc2cc(Cl)ccc2o1` [Example 72, N-(Diaminophosphinyl)-3-(5-chloro-2-benzoxazolyl)propenamide], for which the IC50 (in general, the midpoint of a concentration-inhibition curve) worked out at 3.6 nM.

Regarding `COc1ccc(C(=O)NP(N)(N)=O)s1` [Example 22, N-(Diaminophosphinyl)-5-methoxy-2-thiophenecarboxamide], the midpoint of inhibition, the IC50, lay at 12 nM. `Cc1ccc(C(=O)NP(N)(N)=O)o1` [Example 43, N-(Diaminophosphinyl)-5-methyl-2-furancarboxamide]: inhibition was half-maximal at 6.2 nM (IC50). The same measure for `NP(N)(=O)NC(=O)c1nc2ccccc2s1` [Example 70, N-(Diaminophosphinyl)-2-benzothiazolecarboxamide]: 13 nM; for `NP(N)(=O)NC(=O)CCc1nc2ccccc2o1` [Example 82, N-(Diaminophosphinyl)-3-(2-benzoxazolyl)propionamide]: 27 nM; for `Nc1ccccc1CCC(=O)NP(N)(N)=O` [compound 43, N-(Diaminophosphinyl)-3-(2-aminophenyl) propionamide]: 71 nM. `NP(N)(=O)NC(=O)c1csc(C(F)F)c1` [Example 31, N-(Diaminophosphinyl)-5-difluoromethyl-3-thiophenecarboxamide] had an IC50 of 7.1 nM. The same measure for `CS(=O)(=O)c1ccc(C(=O)NP(N)(N)=O)s1` [Example 18, N-(Diaminophosphinyl)-5-methanesulfonyl-2-thiophenecarboxamide]: 11 nM; for `N#Cc1ccc(CCC(=O)NP(N)(N)=O)cc1` [compound 40, N-(Diaminophosphinyl)-3-(4-cyanophenyl)propionamide]: 18 nM; for `NP(N)(=O)NC(=O)c1cc(Cl)cs1` [Example 84, N-(Diaminophosphinyl)-4-chloro-2-thiophenecarboxamide]: 2.5 nM. For the compound `NP(N)(=O)NC(=O)Cc1ccccc1` [Reference Example 6, N-(Diaminophosphinyl)-phenylacetamide], the IC50 was 15 nM. The same measure for `NP(N)(=O)NC(=O)C=Cc1ccc(Cl)cc1` [compound 31, N-(Diaminophosphinyl)-4-chlorocinnamamide]: 71 nM. Regarding `NP(N)(=O)NC(=O)c1ccc([N+](=O)[O-])cc1` [Reference Example 3, N-(Diaminophosphinyl)-4-nitrobenzamide], inhibition was half-maximal at 6.6 nM (IC50).

Take `NP(N)(=O)NC(=O)C=Cc1ccc(F)cc1F` [compound 34, N-(Diaminophosphinyl)-2,4-difluorocinnamamide]: the IC50 is 22 nM. The same measure for `NP(N)(=O)NC(=O)CSc1nc2ccccc2o1` [Example 63, N-(Diaminophosphinyl)-2-benzoxazolylthioacetamide]: 5.6 nM. For `Cc1cscc1C(=O)NP(N)(N)=O` [Example 85, N-(Diaminophosphinyl)-4-methyl-3-thiophenecarboxamide], it took 2.2 nM to reach half-maximal inhibition (IC50).

Compound `CCc1ccsc1C(=O)NP(N)(N)=O` [Example 27, N-(Diaminophosphinyl)-3-ethyl-2-thiophenecarboxamide] showed an IC50 of 4.1 nM. `NP(N)(=O)NC(=O)c1cc(Br)cs1` [Example 8, N-(Diaminophosphinyl)-4-bromo-thiophenecarboxamide] displayed an IC50 of 4.3 nM. In turn, `Cc1nc2cc(C(=O)NP(N)(N)=O)ccc2o1` [Example 68, N-(Diaminophosphinyl)-2-methyl-5-benzoxazolecarboxamide] yielded an IC50 of 18 nM.

The compound `NP(N)(=O)NC(=O)c1ccc(Cl)cc1` [compound 7, N-(Diaminophosphinyl)-4-chlorobenzamide] gave an IC50 of 6.9 nM. The same measure for `NP(N)(=O)NC(=O)c1ccc(Br)o1` [Example 39, N-(Diaminophosphinyl)-5-bromo-2-furancarboxamide]: 2.2 nM; for `NP(N)(=O)NC(=O)C=Cc1cccc(F)c1` [compound 35, N-(Diaminophosphinyl)-3-fluorocinnamamide]: 17 nM. As for `Cc1ccoc1C(=O)NP(N)(N)=O` [Example 92, N-(Diaminophosphinyl)-3-methyl-2-furancarboxamide], the figure is 6 nM; as for `Cc1cc(C(=O)NP(N)(N)=O)c(C)o1` [Example 49], 27 nM; as for `Cc1cc(C(=O)NP(N)(N)=O)c(Cl)s1` [Example 89, N-(Diaminophosphinyl)-2-chloro-5-methyl-3-thiophenecarboxamide], 2.6 nM. The same measure for `NP(N)(=O)NC(=O)C=Cc1cc(Br)cs1` [Example 77, N-(Diaminophosphinyl)-3-(4-bromo-2-thienyl)propenamide]: 8.1 nM. On to `NP(N)(=O)NC(=O)C=Cc1cccs1` [Example 78, N-(Diaminophosphinyl)-3-(2-thienyl)propenamide], for which the IC50 was 4.7 nM. The same measure for `Cc1cc(C(=O)NP(N)(N)=O)sc1Cl` [Example 35, N-(Diaminophosphinyl)-5-chloro-4-methyl-2-thiophenecarboxamide]: 11 nM; for `NP(N)(=O)NC(=O)c1cccc(F)c1` [Reference Example 8, N-(Diaminophosphinyl)-3-fluorobenzamide]: 4.5 nM. Compound `NP(N)(=O)NC(=O)c1ccsc1Cl` [Example 38, N-(Diaminophosphinyl)-2-chloro-3-thiophenecarboxamide] returned an IC50 of 1.7 nM. The same measure for `NP(N)(=O)NC(=O)CSc1nc2ccccc2s1` [Example 64, N-(Diaminophosphinyl)-2-benzothiazolylthioacetamide]: 2.9 nM; for `COc1ccc(C(=O)NP(N)(N)=O)cc1` [Reference Example 12, N-(diaminophosphinyl)-4-methoxybenzamide]: 44 nM; for `Cc1sc(C(=O)NP(N)(N)=O)cc1Cl` [Example 34, N-(Diaminophosphinyl)-4-chloro-5-methyl-2-thiophenecarboxamide]: 12 nM. As for `NP(N)(=O)NC(=O)c1ccc(C(F)(F)F)cc1` [compound 19, N-(Diaminophosphinyl)-4-trifluoromethylbenzamide], the figure is 12 nM. The same measure for `Cc1c(Cl)sc(Cl)c1C(=O)NP(N)(N)=O` [Example 88, N-(Diaminophosphinyl)-2,5-dichloro-4-methyl-3-thiophenecarboxamide]: 3.3 nM. Regarding `Cc1onc(-c2ccccc2)c1C(=O)NP(N)(N)=O` [Example 73, N-(Diaminophosphinyl)-5-methyl-3-phenyl-4-isoxazolecarboxamide], the IC50 amounted to 55 nM.

Take `NP(N)(=O)NC(=O)c1sc2ccccc2c1Cl` [Example 74, N-(Diaminophosphinyl)-3-chloro-2-benzothiophenecarboxamide]: the IC50 is 5.1 nM. The same measure for `NP(N)(=O)NC(=O)c1cscc1Br` [Example 37, N-(Diaminophosphinyl)-4-bromo-3-thiophenecarboxamide]: 1.8 nM; for `NP(N)(=O)NC(=O)COc1ccccc1Cl` [Example 59, N-(Diaminophosphinyl)-2-chlorophenoxyacetamide]: 5.4 nM. On to `NP(N)(=O)NC(=O)C=Cc1nc2ccccc2o1` [Example 69, N-(Diaminophosphinyl)-3-(2-benzoxazolyl)propenamide], for which the IC50 is 9.7 nM.

`Cc1cc(C)c(C(=O)NP(N)(N)=O)s1` [Example 91, N-(Diaminophosphinyl)-3,5-dimethyl-2-thiophenecarboxamide] registered an IC50 of 6.3 nM. The same measure for `NP(N)(=O)NC(=O)CCc1ccc(Cl)cc1` [compound 39, N-(Diaminophosphinyl)-3-(4-chlorophenyl)propionamide]: 5.9 nM.

On to `NP(N)(=O)NC(=O)C=Cc1ccc(Cl)c(Cl)c1` [compound 36, N-(Diaminophosphinyl)-3,4-dichlorocinnamamide], for which it took 8.9 nM to reach half-maximal inhibition (IC50).

Regarding `NP(N)(=O)NC(=O)CCc1ccccc1` [Reference Example 37, N-(Diaminophosphinyl)-3-phenylpropionamide], inhibition was half-maximal at 17 nM (IC50). As for `Cc1cc(C(=O)NP(N)(N)=O)c(C(F)(F)F)o1` [Example 48, N-(Diaminophosphinyl)-2-trifluoromethyl-5-methyl-3-furancarboxamide], the figure is 8.3 nM; as for `Cc1csc(C(=O)NP(N)(N)=O)c1Cl` [Example 90, N-(Diaminophosphinyl)-3-chloro-4-methyl-2-thiophenecarboxamide], 6.3 nM.

Compound `NP(N)(=O)NC(=O)c1cc2ccccc2o1` [Example 67, N-(Diaminophosphinyl)-2-benzofurancarboxamide] returned an IC50 of 6.1 nM. The same measure for `NP(N)(=O)NC(=O)c1cc(Br)c(Br)s1` [Example 7, N-(Diaminophosphinyl)-4,5-dibromo-2-thiophenecarboxamide]: 4.3 nM. Take `NP(N)(=O)NC(=O)c1cccc2ccccc12` [compound 26, N-(Diaminophosphinyl)-1-naphthalenecarboxamide]: half-maximal inhibition (IC50) required 13 nM. The same measure for `NP(N)(=O)NC(=O)Cc1ccsc1` [Example 81, N-(Diaminophosphinyl)-3-thienylacetamide]: 7.9 nM; for `NP(N)(=O)NC(=O)c1ccc(Br)s1` [Example 6, N-(Diaminophosphinyl)-5-bromo-2-thiophenecarboxamide]: 3.5 nM. As for `NP(N)(=O)NC(=O)c1cccnc1` [Reference Example 2, N-(Diaminophosphinyl)-3-pyridinecarboxamide], the figure is 9.6 nM; as for `Cc1cc(C(=O)NP(N)(N)=O)sc1Br` [Example 29, N-(Diaminophosphinyl)-5-bromo-4-methyl-2-thiophenecarboxamide], 8.1 nM; as for `CCc1occc1C(=O)NP(N)(N)=O` [Example 51, N-(Diaminophosphinyl)-2-ethyl-3-furancarboxamide], 22 nM.
